# Test results from patent US20240269139A1, “COMPOUNDS FOR TARGETED PROTEIN DEGRADATION OF KINASES” (DANA-FARBER CANCER INSTITUTE, INC., priority 2020, published 2024).
# Where two headings read alike, the source gives them in different places.
# Legend:
# Format in all cases: cell-based
# [1] = target: protein kinases (human kinome) (Homo sapiens, UniProt P41240); conditions: experiment wp047
# Text: (§1) Although development of targeted protein degraders requires a POI binder, among already-liganded proteins such as kinases, it was hypothesized that different targets would have a different propensity for current approaches to degrader-mediated destruction, which was termed ‘degradability’. […] It was rationalized that the probability of identifying the same kinase as a false positive in multiple treatments is low, therefore this analysis served to also assess the robustness of our data and subsequent interpretations. […] Overall, 62 protein kinases were degraded in more than 10 independent treatments, and remarkably, 9 of these (CDK4, AURKA, FER, WEE1, BLK. LIMK2, CDK6, GAK, LIMK1) were each degraded in at least 40 of the 154 independent treatments, emphasizing their predisposition to induced degradation (FIG. 1G; Appendix I).
# (§2) Next, the frequency of degradation assessment was corrected for over-representation of molecules in the full dataset by omitting replicate profiling of compounds under different experimental conditions, to remove any bias. […] Unsurprisingly, the top degradable kinases mirror those from the previous analysis (CDK4, AURKA, FER, WEE1, BLK), confirming that in sufficiently large datasets, even with over-representation of certain molecules, frequency of degradation is a good measure of general tractability.
# [2] = target: T1, protein kinases (human kinome) (Homo sapiens, UniProt P42680); conditions: TEC (P42680), experiment wp047
# T1 sequence (P42680 1-631): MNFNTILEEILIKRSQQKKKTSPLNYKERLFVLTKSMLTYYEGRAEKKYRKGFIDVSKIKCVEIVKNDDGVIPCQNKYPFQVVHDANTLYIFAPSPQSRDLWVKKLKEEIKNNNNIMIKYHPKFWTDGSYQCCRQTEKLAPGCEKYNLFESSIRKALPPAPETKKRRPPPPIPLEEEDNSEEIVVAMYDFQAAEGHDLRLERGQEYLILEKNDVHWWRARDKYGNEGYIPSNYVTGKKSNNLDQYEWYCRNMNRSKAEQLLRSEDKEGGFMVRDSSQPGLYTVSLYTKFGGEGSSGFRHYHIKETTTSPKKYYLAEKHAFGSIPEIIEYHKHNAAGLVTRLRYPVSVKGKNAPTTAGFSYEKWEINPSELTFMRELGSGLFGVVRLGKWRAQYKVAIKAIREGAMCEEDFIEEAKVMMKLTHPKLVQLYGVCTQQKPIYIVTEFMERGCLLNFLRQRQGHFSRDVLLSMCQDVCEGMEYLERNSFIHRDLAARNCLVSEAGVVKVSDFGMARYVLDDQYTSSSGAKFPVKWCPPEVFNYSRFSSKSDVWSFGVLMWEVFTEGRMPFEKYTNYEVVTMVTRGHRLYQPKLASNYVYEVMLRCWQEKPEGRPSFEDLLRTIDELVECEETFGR
# Text: as §1, §2
# [3] = target: protein kinases (human kinome) (Homo sapiens, UniProt P51451)
# Sequence of protein kinases (human kinome) (Homo sapiens, UniProt P51451) (P51451 whole entry): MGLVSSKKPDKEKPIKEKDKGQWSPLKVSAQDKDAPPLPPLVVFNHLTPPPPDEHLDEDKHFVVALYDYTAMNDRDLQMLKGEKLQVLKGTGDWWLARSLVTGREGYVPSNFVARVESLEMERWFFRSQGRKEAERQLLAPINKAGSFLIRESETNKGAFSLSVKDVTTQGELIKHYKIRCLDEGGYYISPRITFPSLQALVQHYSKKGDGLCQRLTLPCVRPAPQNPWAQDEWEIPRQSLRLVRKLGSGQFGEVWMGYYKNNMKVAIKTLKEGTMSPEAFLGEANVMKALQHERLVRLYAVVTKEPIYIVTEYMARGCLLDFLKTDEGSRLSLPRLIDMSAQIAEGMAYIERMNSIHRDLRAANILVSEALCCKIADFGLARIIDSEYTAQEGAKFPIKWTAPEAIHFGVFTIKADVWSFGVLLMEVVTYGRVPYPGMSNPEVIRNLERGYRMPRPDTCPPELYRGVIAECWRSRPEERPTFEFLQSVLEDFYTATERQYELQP
# Text: as §1, §2
# [4] = test system: protein kinases (human kinome)
# Text: as §1, §2
# Sequence of protein kinases (human kinome) (Homo sapiens, UniProt P41240) (P41240 whole entry): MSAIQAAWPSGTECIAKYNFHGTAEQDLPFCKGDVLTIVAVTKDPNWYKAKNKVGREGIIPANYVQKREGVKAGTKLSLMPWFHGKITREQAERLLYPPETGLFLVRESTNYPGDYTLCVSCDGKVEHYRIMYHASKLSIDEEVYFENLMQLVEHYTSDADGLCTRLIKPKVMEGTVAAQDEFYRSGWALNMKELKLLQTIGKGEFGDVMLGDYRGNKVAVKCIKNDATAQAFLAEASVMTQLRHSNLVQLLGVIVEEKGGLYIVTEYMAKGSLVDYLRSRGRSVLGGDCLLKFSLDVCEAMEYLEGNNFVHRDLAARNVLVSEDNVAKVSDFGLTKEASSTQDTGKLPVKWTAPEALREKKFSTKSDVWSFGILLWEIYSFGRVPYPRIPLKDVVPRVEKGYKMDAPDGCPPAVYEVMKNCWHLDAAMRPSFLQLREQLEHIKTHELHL
smiles,measurement,setting,value
Nc1ncnc2c1c(-c1ccc(Oc3ccccc3)cc1)nn2[C@@H]1CCCN(C(=O)CCCN2CCN(CCNC(=O)CCOCCOCCNc3cccc4c3C(=O)N(C3CCC(=O)NC3=O)C4=O)CC2)C1 (some centres unmarked) [DD.03.119],logFC of CSK,[1]; Accession P41240,−1.786
same,logFC CSK,"[1]; CSK (P41240), down",−1.786
same,logFC,[2],−2.272
same,logFC,[2]; direction down,−2.272
same,logFC of BLK,"[3]; BLK P51451, experiment wp047",−1.859
same,logFC of BLK (P51451),"[3]; Experiment wp047, down",−1.859
same,logFC FYN,"[4]; Accession P06241-2, experiment wp047",−0.8669
same,logFC of SRC,"[4]; Accession P12931-2, experiment wp047",−0.6128
same,logFC FYN,"[4]; FYN P06241-2, experiment wp047",−0.8669
same,logFC LCK,"[4]; LCK, accession P06239-3, experiment wp047, direction of change down",−1.787
same,logFC,"[4]; SRC (P12931-2) protein abundance, degrader vs DMSO, down",−0.6128
same,logFC ABL2 (P42684-5),[4]; experiment wp047,−1.047
same,logFC of ABL2 (P42684-5),[4]; experiment wp047,−1.047
same,logFC LCK (P06239-3),"[4]; experiment wp047, direction of change down",−1.787
